From paper PMC6325200, “Effects of Microplate Type and Broth Additives on Microdilution MIC Susceptibility Assays” (Antimicrobial Agents and Chemotherapy, 2018)

Key:
Test in all cases: microbe, parasite or virus in culture
E. coli ATCC 25922 = details: n = 2
Description: A positive control of a row of just the bacteria and a negative control of only the medium were included for every plate tested.
The compounds along with standard antibiotics were serially diluted 2-fold across the 96-well plates. […] A sample of each culture was then diluted 40-fold in fresh MH broth (in presence and absence of Tween) and incubated at 37°C for 2 to 3 h.
For experiments in the presence of surfactant, 2% beractant (25 mg/ml) was added to the mid-log-phase cultures and mixed gently and added to all the 96-well plates. For experiments in the presence of serum, a mixture of 50% of human serum along with 50% MHB was prepared and used throughout the experiment.

P. aeruginosa ATCC 10145 = details: Pseudomonas aeruginosa, n = 2
Summary of the method: (§1)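 Every plate included two controls, one row of bacteria alone and one of medium only. Test agents and standard antibiotics underwent twofold dilution series in 96-well format, and cultures were diluted 40-fold into MH broth in the presence or absence of Tween before 2–3 h at 37°C.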

A. baumannii ATCC 19606 = details: Acinetobacter baumannii, n = 2
Summary of the method: as §1

K. pneumoniae ATCC 13883 = details: Klebsiella pneumoniae, n = 2
Summary of the method: as §1

Measured: MIC

Cc1onc(-c2ccccc2)c1C(=O)N[C@@H]1C(=O)N2[C@@H]1SC(C)(C)[C@@H]2C(=O)O [Oxacillin, oxacillin]
> 64 µg/mL: E. coli ATCC 25922; Corning NBS plate, MHB +0.002% T80, no further additive | E. coli ATCC 25922; Corning NBS plate, MHB −T80, no additive | E. coli ATCC 25922; Corning PS plate, MHB +0.002% T80, no further additive | E. coli ATCC 25922; Corning PS plate, MHB −T80, no additive | E. coli ATCC 25922; Corning TC plate, MHB +0.002% T80, no further additive | E. coli ATCC 25922; Corning TC plate, MHB −T80, no additive | E. coli ATCC 25922; Escherichia coli, ATCC25922, 24 h, Corning NBS, MH + 2% LHB, 2% LS | E. coli ATCC 25922; Escherichia coli, ATCC25922, 24 h, Corning NBS, MH + 2% LHB, 50% HS | E. coli ATCC 25922; Escherichia coli, ATCC25922, 24 h, Corning NBS, MH + 2% LHB, no additive | E. coli ATCC 25922; Escherichia coli, ATCC25922, 24 h, Corning NBS, MH + T80, 2% LS | E. coli ATCC 25922; Escherichia coli, ATCC25922, 24 h, Corning NBS, MH + T80, 50% HS | E. coli ATCC 25922; Escherichia coli, ATCC25922, 24 h, Corning PS, MH + 2% LHB, 2% LS | E. coli ATCC 25922; Escherichia coli, ATCC25922, 24 h, Corning PS, MH + 2% LHB, 50% HS | E. coli ATCC 25922; Escherichia coli, ATCC25922, 24 h, Corning PS, MH + 2% LHB, no additive | E. coli ATCC 25922; Escherichia coli, ATCC25922, 24 h, Corning PS, MH + T80, 2% LS | E. coli ATCC 25922; Escherichia coli, ATCC25922, 24 h, Corning PS, MH + T80, 50% HS | E. coli ATCC 25922; Escherichia coli, ATCC25922, 24 h, Corning TC, MH + 2% LHB, 2% LS | E. coli ATCC 25922; Escherichia coli, ATCC25922, 24 h, Corning TC, MH + 2% LHB, 50% HS | E. coli ATCC 25922; Escherichia coli, ATCC25922, 24 h, Corning TC, MH + 2% LHB, no additive | E. coli ATCC 25922; Escherichia coli, ATCC25922, 24 h, Corning TC, MH + T80, 2% LS | E. coli ATCC 25922; Escherichia coli, ATCC25922, 24 h, Corning TC, MH + T80, 50% HS | E. coli ATCC 25922; Escherichia coli, ATCC25922, 24 h, Trek PS, MH + 2% LHB, 2% LS | E. coli ATCC 25922; Escherichia coli, ATCC25922, 24 h, Trek PS, MH + 2% LHB, 50% HS | E. coli ATCC 25922; Escherichia coli, ATCC25922, 24 h, Trek PS, MH + 2% LHB, no additive | E. coli ATCC 25922; Escherichia coli, ATCC25922, 24 h, Trek PS, MH + T80, 2% LS | E. coli ATCC 25922; Escherichia coli, ATCC25922, 24 h, Trek PS, MH + T80, 50% HS | E. coli ATCC 25922; Escherichia coli, ATCC25922, Corning NBS plate, MHB +0.002% T80, no further additive | E. coli ATCC 25922; Escherichia coli, ATCC25922, Corning NBS plate, MHB −T80, no additive | E. coli ATCC 25922; Escherichia coli, ATCC25922, Corning NBS, MH, 2% LS | E. coli ATCC 25922; Escherichia coli, ATCC25922, Corning NBS, MH, 50% HS | E. coli ATCC 25922; Escherichia coli, ATCC25922, Corning PS plate, MHB +0.002% T80, no further additive | E. coli ATCC 25922; Escherichia coli, ATCC25922, Corning PS plate, MHB −T80, no additive | E. coli ATCC 25922; Escherichia coli, ATCC25922, Corning PS, MH, 2% LS | E. coli ATCC 25922; Escherichia coli, ATCC25922, Corning PS, MH, 50% HS | E. coli ATCC 25922; Escherichia coli, ATCC25922, Corning TC plate, MHB +0.002% T80, no further additive | E. coli ATCC 25922; Escherichia coli, ATCC25922, Corning TC plate, MHB −T80, no additive | E. coli ATCC 25922; Escherichia coli, ATCC25922, Corning TC, MH, 2% LS | E. coli ATCC 25922; Escherichia coli, ATCC25922, Corning TC, MH, 50% HS | E. coli ATCC 25922; Escherichia coli, ATCC25922, Nunc PS plate, MHB +0.002% T80 | E. coli ATCC 25922; Escherichia coli, ATCC25922, Nunc PS plate, MHB −T80 | E. coli ATCC 25922; Escherichia coli, ATCC25922, Nunc U TC plate, MHB +0.002% T80 | E. coli ATCC 25922; Escherichia coli, ATCC25922, Nunc U TC plate, MHB −T80 | E. coli ATCC 25922; Escherichia coli, ATCC25922, Nunc flat TC plate, MHB +0.002% T80 | E. coli ATCC 25922; Escherichia coli, ATCC25922, Nunc flat TC plate, MHB −T80 | E. coli ATCC 25922; Escherichia coli, ATCC25922, Trek PS plate, MHB +0.002% T80, no further additive | E. coli ATCC 25922; Escherichia coli, ATCC25922, Trek PS plate, MHB −T80, no additive | E. coli ATCC 25922; Escherichia coli, ATCC25922, Trek PS, MH, 2% LS | E. coli ATCC 25922; Escherichia coli, ATCC25922, Trek PS, MH, 50% HS | P. aeruginosa ATCC 10145; ATCC10145, Corning NBS, MHB +T80 | P. aeruginosa ATCC 10145; ATCC10145, Corning NBS, MHB -T80 | P. aeruginosa ATCC 10145; ATCC10145, Corning PS, MHB +T80 | P. aeruginosa ATCC 10145; ATCC10145, Corning PS, MHB -T80 | P. aeruginosa ATCC 10145; ATCC10145, Corning TC, MHB +T80 | P. aeruginosa ATCC 10145; ATCC10145, Corning TC, MHB -T80 | A. baumannii ATCC 19606; ATCC19606, Corning NBS, MHB +T80 | A. baumannii ATCC 19606; ATCC19606, Corning NBS, MHB -T80 | A. baumannii ATCC 19606; ATCC19606, Corning PS, MHB +T80 | A. baumannii ATCC 19606; ATCC19606, Corning PS, MHB -T80 | A. baumannii ATCC 19606; ATCC19606, Corning TC, MHB +T80 | A. baumannii ATCC 19606; ATCC19606, Corning TC, MHB -T80 | K. pneumoniae ATCC 13883; ATCC13883, Corning NBS, MHB +T80 | K. pneumoniae ATCC 13883; ATCC13883, Corning NBS, MHB -T80 | K. pneumoniae ATCC 13883; ATCC13883, Corning PS, MHB +T80 | K. pneumoniae ATCC 13883; ATCC13883, Corning PS, MHB -T80 | K. pneumoniae ATCC 13883; ATCC13883, Corning TC, MHB +T80 | K. pneumoniae ATCC 13883; ATCC13883, Corning TC, MHB -T80
